Data as given in patent publication US4740233A, “Substituted 1,2,4-triazolo[1,5-a]-pyrimidine-2-sulfonamides and compositions and methods of controlling undesired vegetation and suppressing the nitrification of ammonium nitrogen in soil” (The Dow Chemical Company, priority 1986, dated 1988).

System: nitrification of ammonium nitrogen
Assay: Suppression of nitrification of ammonium nitrogen in soil
Settings: 27° C.
Method: A sufficient volume of water was added to 20 g of the soil in a wide-mouth, screw-cap, 4-ounce, glass bottle, such that the moisture content of the mixture was made equal to the 1/3 bar tension value for that soil. The mixture was thoroughly mixed before sealing. […] Acetone slows the rate of soil nitrification and its concentration must be carefully controlled. Single samples of each test chemical were incubated for two weeks at 27° C.
The experiment comprised the following types of samples:
The soil samples were analyzed as follows: Sufficient ammonium sulfate extracting solution was added to the sample, such that the total volume of added water was 50 ml (included water added during sample preparation). The capped mixture was shaken 10 minutes to solubilize nitrate and the soil particulates were allowed to settle. The nitrate concentration in the water phase was determined with a nitrate-specific ion electrode such as Orion Model 93-07.
The non-nitrate nitrogen remaining (% NH4 -N remaining) in the soil after two weeks (performance value) was calculated as follows: [formula]

| Compound | % NH4-N Remaining After 2 Weeks Incubation (10 ppm) | % NH4-N Remaining After 2 Weeks Incubation (0.01 ppm) | % NH4-N Remaining After 2 Weeks Incubation (0.1 ppm) | % NH4-N Remaining After 2 Weeks Incubation (1 ppm) | % NH4-N Remaining After 2 Weeks Incubation (0.06 ppm) | % NH4-N Remaining After 2 Weeks Incubation (0.25 ppm) | % NH4-N Remaining After 2 Weeks Incubation (4 ppm) | also measured |
| --- | --- | --- | --- | --- | --- | --- | --- | --- |
| Cc1ccn2nc(S(=O)(=O)Nc3ccccc3[S+]([O-])C(F)(F)C(F)F)nc2n1 (stereo not shown) [Compound 149] | 62% | – | – | – | – | – | – | % NH4-N Remaining After 2 Weeks Incubation (0.6 ppm): 0%; % NH4-N Remaining After 2 Weeks Incubation (1.25 ppm): 0%; % NH4-N Remaining After 2 Weeks Incubation (2.5 ppm): 5%; % NH4-N Remaining After 2 Weeks Incubation (5 ppm): 26% |
| Cc1cc(C)n2nc(S(=O)(=O)Nc3cc(Cl)ccc3Cl)nc2n1 [Compound 21] | 86% | 8% | 42% | 68% | – | – | – | – |
| Cc1c(C(=O)O)cnc2nc(S(=O)(=O)Nc3c(Cl)cccc3Cl)nn12 [Compound 224] | – | – | – | 27% | 1% | 0% | 63% | – |
| COC(=O)c1cccc(F)c1NS(=O)(=O)c1nc2nc(C)ccn2n1 [Compound 159] | – | – | – | 80% | 49% | 56% | 94% | – |
| CSc1ccccc1NS(=O)(=O)c1nc2ncc(Cl)cn2n1 [Compound 115] | – | – | – | 64% | 37% | 41% | 86% | – |
| Cc1nc2nc(S(=O)(=O)Nc3c(Cl)cccc3Cl)nn2c(C)c1Cl [Compound 200] | – | – | – | 50% | 0% | 31% | 60% | – |
| CNc1ccccc1NS(=O)(=O)c1nc2nc(C)cc(C)n2n1 [Compound 5] | 28% | 0% | 0% | 1% | – | – | – | – |
| Cc1cc(C)n2nc(S(=O)(=O)Nc3c(C)cccc3Br)nc2n1 [Compound 58] | – | – | – | 58% | 92% | 48% | 80% | – |
| O=[N+]([O-])c1ccc(-c2cnc3nc(S(=O)(=O)Nc4c(Cl)cccc4Cl)nn3c2)cc1 [Compound 226] | – | – | – | 42% | 2% | 17% | 69% | – |
| Cc1cc(C)n2nc(S(=O)(=O)Nc3ccccc3SC(C)(C)C)nc2n1 [Compound 80] | – | – | – | 20% | 0% | 0% | 43% | – |
| CCOC(=O)CN(c1c(Cl)cccc1Cl)S(=O)(=O)c1nc2nc(C)cc(C)n2n1 [Compound 264] | – | – | – | 26% | 0% | 1% | 37% | – |
| CSc1cccc(C)c1NS(=O)(=O)c1nc2nc(C)cc(C)n2n1 [Compound 70] | – | – | – | 69% | 0% | 29% | 87% | – |
| Cc1cc(C)n2nc(S(=O)(=O)Nc3ccccc3SC(F)(F)F)nc2n1 [Compound 55] | – | – | – | 65% | 19% | 91% | 84% | – |
| Cc1cc(C)n2nc(S(=O)(=O)Nc3ccccc3S(=O)(=O)C(F)(F)F)nc2n1 [Compound 57] | – | – | – | 45% | 2% | 17% | 69% | – |
| Cc1cc(C)n2nc(S(=O)(=O)Nc3ccccc3Oc3ncc(C(F)(F)F)cc3Cl)nc2n1 [Compound 99] | – | – | – | 0% | 0% | – | 57% | – |
| Cc1cc(C)n2nc(S(=O)(=O)Nc3c(C)cccc3C(=O)Oc3ccccc3)nc2n1 [Compound 75] | – | – | – | 67% | 25% | 61% | 86% | – |
| Cc1cc(C)n2nc(S(=O)(=O)Nc3ccccc3C(=O)OC(C)C)nc2n1 [Compound 36] | 60% | 0% | 0% | 17% | – | – | – | – |
| Cc1cc(C)n2nc(S(=O)(=O)Nc3ccccc3Oc3ccc(C(F)(F)F)cc3Cl)nc2n1 [Compound 97] | – | – | – | 3% | 67% | 0% | 19% | – |

| Compound | % NH4-N Remaining After 2 Weeks Incubation (10 ppm) | % NH4-N Remaining After 2 Weeks Incubation (0.01 ppm) | % NH4-N Remaining After 2 Weeks Incubation (0.1 ppm) | % NH4-N Remaining After 2 Weeks Incubation (1 ppm) | % NH4-N Remaining After 2 Weeks Incubation (0.06 ppm) | % NH4-N Remaining After 2 Weeks Incubation (0.25 ppm) | % NH4-N Remaining After 2 Weeks Incubation (4 ppm) | also measured |
| --- | --- | --- | --- | --- | --- | --- | --- | --- |
| CSc1cccc(C)c1NS(=O)(=O)c1nc2nc(C)ccn2n1 [Compound 150] | – | – | – | 91% | 83% | 74% | 93% | – |
| Cc1cc(C)n2nc(S(=O)(=O)Nc3ccccc3[S+]([O-])C(F)(F)C(F)F)nc2n1 (stereo not shown) [Compound 60] | 58% | – | – | – | – | – | – | % NH4-N Remaining After 2 Weeks Incubation (0.6 ppm): 0%; % NH4-N Remaining After 2 Weeks Incubation (1.25 ppm): 0%; % NH4-N Remaining After 2 Weeks Incubation (2.5 ppm): 8%; % NH4-N Remaining After 2 Weeks Incubation (5 ppm): 41% |
| COC(=O)c1cccc(C)c1NS(=O)(=O)c1nc2nc(C)ccn2n1 [Compound 146] | – | – | – | 60% | 19% | 48% | 79% | – |
| Cc1cc(C)n2nc(S(=O)(=O)Nc3c(Cl)cccc3COCc3ccccc3)nc2n1 [Compound 92] | – | – | – | 0% | 0% | 4% | 25% | – |
| Cc1cc(C)n2nc(S(=O)(=O)Nc3c(F)cccc3C(=O)O)nc2n1 [Compound 27] | 35% | 0% | 0% | 0% | – | – | – | – |
| Cc1cc(C)n2nc(S(=O)(=O)Nc3cccnc3Cl)nc2n1 [Compound 255] | 72% | 0% | 0% | 37% | – | – | – | – |
| Cc1cc(C)n2nc(S(=O)(=O)Nc3ncc(Cl)cc3Cl)nc2n1 [Compound 251] | 29% | 0% | 0% | 0% | – | – | – | – |
| Cc1cc(C)n2nc(S(=O)(=O)Nc3ccccc3SC(F)(F)C(F)F)nc2n1 [Compound 59] | – | – | – | 51% | 11% | 33% | 66% | – |
| Cc1cc(C)n2nc(S(=O)(=O)Nc3c(C)cccc3C(=O)OCCN(C)C)nc2n1 [Compound 73] | – | – | – | 41% | 26% | 47% | 62% | – |
| COC(=O)c1ccccc1NS(=O)(=O)c1nc2nc(C)c3c(n2n1)CCC3 [Compound 109] | 92% | 0% | 0% | 41% | – | – | – | – |
| Cc1cc(C)n2nc(S(=O)(=O)Nc3c(C)cccc3C(=O)OC(C)C)nc2n1 [Compound 64] | – | – | – | 62% | 19% | 43% | 81% | – |
| Cc1cc(C)n2nc(S(=O)(=O)Nc3cccc(Cl)c3C)nc2n1 [Compound 68] | – | – | – | 16% | 0% | 20% | 57% | – |
| CSc1ccccc1NS(=O)(=O)c1nc2ncccn2n1 [Compound 135] | 100% | 0% | 0% | 12% | – | – | – | – |
| COC(=O)c1sccc1NS(=O)(=O)c1nc2nc(C)cc(C)n2n1 [Compound 257] | 58% | 0% | 0% | 0% | – | – | – | – |
| Cc1cc(C)n2nc(S(=O)(=O)Nc3ccccc3C(=O)N(C)C)nc2n1 [Compound 42] | 68% | 0% | 0% | 8% | – | – | – | – |
| Cc1cc(C)n2nc(S(=O)(=O)Nc3cc(Cl)cc(Cl)c3)nc2n1 [Compound 24] | 83% | 0% | 28% | 65% | – | – | – | – |
| Cc1cc(C)n2nc(S(=O)(=O)Nc3ccc(Cl)cc3Cl)nc2n1 [Compound 20] | – | – | – | 8% | 0% | 0% | – | % NH4-N Remaining After 2 Weeks Incubation (0.125 ppm): 0%; % NH4-N Remaining After 2 Weeks Incubation (0.5 ppm): 5% |
